# Results reported in patent publication US20260034200A1, “TOLEROGENIC PEPTIDES” (University of Birmingham, priority 2022, published 2026).
# How the values were obtained:
# [1] = test system: PBMCs from T1D patients (CD25+ CD71+ CTVmid CD4+ T-cells); assay: FAIM assay with PBMCs from T1D patients; type: cell-based, human; conditions: 34/38 T1D patients
# Text: FIG. 7. GAD65 P10Sol response rate in T1D patients. (A) T1D PBMCs were screened using the FAIM assay for responsiveness to GAD65 P10 30-mer and GAD65 P10Sol with paired ^3H-thymidine samples were acquired for each condition. A positive response for FAIM assay required a proliferating CD25^+ CD71^+ CD4 T-cell count >25 and the population SI to be ≥2× the negative control. A positive response for the ^3H-thymidine assay required raw counts >1000 and a SI of ≥3× the negative control. […] The scale for both heat maps is Log 2 (stimulation index (SI)). […] (B) Agreement analysis for the outcomes of the flow cytometric and ^3H-thymidine proliferation readouts of the FAIM assay. (C) Paired analysis of stimulation indexes from FAIM^+ and ^3H-thymidine readouts, wilcoxon matched-pairs sign rank test.
# Soluble candidate peptide GAD65 P10Sol (SEQ ID NO 23) was used as a representative peptide and tested for induction of tolerance in a suitable HLA-DR transgenic mouse model (FIG. 1A). […] The FAIM assay involves a fluorescent dye-labelled CD4^+ cell enriched culture with a primary flow cytometric readout assessing CD4 T-cell fluorescent dye dilution and cell-surface activation marker expression with optional paired readouts of ^3H-thymidine incorporation and secreted cytokine measurement. […]
# [2] = test system: peripheral blood mononuclear cells (PBMCs); assay: Human PBMC 3H-thymidine incorporation assay; type: cell-based; conditions: for positive response rate in 3H-thymidine incorporation assay: day 7, positive = SI>=3 and ccpm >1000
# Method: Fresh blood samples were collected in CPDA-tubes. PBMCs from lymphocyte cones or fresh blood were isolated by Ficoll gradient centrifugation, frozen in 40% RPMI-1640, 50% heat inactivated fetal bovine serum (Sigma; F9665) and 10% DMSO and stored in liquid nitrogen until required. Thawed PBMCs were cultured at 1.5×10^6 cells/mL in X-VIVO-15 medium ((Lonza BE02-061Q) supplemented with 5% v/v human AB serum (Sigma H4522), 1× penicillin/streptomycin (Gibco 15140122)) either in the presence of GAD65 P10 30-mer antigen between 20-50 μg/mL or absence of antigen (negative control). Peptide response was measured by 3H radioactive thymidine incorporation on day 5 and day 7, by pulsing cell cultures with ^3H-thymidine (Perkin Elmer), as previously described (Mazza et al., 2002). Positive responses had corrected counts per minute (ccpm) counts >1000 and a stimulation index (SI)≥3, calculated as the fold-change of peptide stimulated condition over the negative control.
# The workflow to design and validate tolerogenic apitopes (antigen processing independent T-cell epitopes) begins with identification of peptides predicted to bind to various HLA-DR molecules (pan-DR binders) using a combination of publicly available MHC-binding algorithms (FIG. 1A). In silico analyses identified 9 or 15 amino acid peptides within GAD65 that were extended to ˜30-mer peptides (FIG. 1B) to encourage antigen processing and presentation of a naturally processed epitope (Anderton et al., 2002). To test whether the designed 30-mer peptides could be correctly processed and preferentially induce immune responses in T1D patients, we screened for GAD65 30-mers responses in isolated peripheral blood mononuclear cells (PBMCs) from 20 non-diabetic healthy controls and 40 adults with T1D. […] On day 7 of the ^3H-thymidine incorporation assay, 20% (4/20) of healthy controls had shown a positive response to GAD65 P10 30-mer compared to 58% (23/40) of T1D patients (FIG. 1C).
# HLA-DR4 transgenic mice = assay: Peptide immunogenicity in HLA-DR transgenic mice (immunisation); type: in vivo, mouse; conditions: HLA-DR4 transgenic mice (HLA-DRB1*04:01); data not shown
# Method: HLA-DR4 transgenic mice were injected subcutaneously with Complete Freund's Adjuvant (CFA) and 100 μg of GAD65 P10 30-mer. After 10 days, splenocytes were isolated and re-stimulated with GAD65 P10 30-mer for a further 4-5 days before fusion with hypoxanthine-aminopterin-thymidine (HAT) sensitive BW5147 cells using polyethylene glycol (PEG). Fused hybridomas were expanded in HAT selection media before antigen-specific screening. Co-cultures of 1×10^5 hybridomas and 2×10^5 Priess cells (an Epstein-Barr Virus (EBV) transformed DR4 (DRB1*04:01) expressing human cell line (ECACC 86052111)) as antigen presenting cells (APCs) were incubated for 48 h in a 96-well plate with peptide, whole GAD65 protein, or media only. Antigen-specific responses were determined by IL-2 secretion into culture supernatant by ELISA assay (BioLegend 431004). Hybridomas that proliferated in response to both GAD65 protein and GAD65 30-mer were single cell cloned by limiting dilution.
# Generation of hybridomas that respond to both the GAD65 protein and the P10 30-mer peptide means that these hybridomas can recognise naturally processed peptide presented by APCs—a property shown to be critical for successful peptide immunotherapy design (Anderton et al 2002).
sequence,measurement,setting,value
DAAWGGGLLMSRKHKWKLSGVERANSVTWN [P10 30-mer],T1D patients responding (FAIM+),[1],89%
same,average magnitude of the proliferative response,"[2]; T1D patients vs healthy controls, Mann-Whitney p=0.0146",significantly increased
same,positive response rate in 3H-thymidine incorporation assay,[2]; T1D patients (23/40),58%
same,positive response rate in 3H-thymidine incorporation assay,[2]; non-diabetic healthy controls (4/20),20%
same,response to immunisation,HLA-DR4 transgenic mice,responded well
